Reference: patent US6362218B1, “Brefeldin A derivatives” (Purdue Research Foundation, priority 1997, dated 2002)
Several values for one entry are separate records, joined by “and”; a condition that tells them apart may be missing. Identical values can stand only once.

How the values were obtained:
HOP-62 = assay: NCI human cancer cell line screen, antiproliferative activity, Lung HOP-62; format: cell-based; settings: concentration corresponding to 50% growth inhibition, read-out: cytotoxicity GI50, Lung HOP-62
Procedure: (§1) The new synthesized brefeldin A prodrug candidates and analogs were examined for antiproliferative activity against human cancer cell lines in the National Cancer Institute screen, in which the activity of each compound was evaluated with approximately 55 different cancer cell lines of diverse tumor origins.

HCT-116 = assay: NCI human cancer cell line screen, antiproliferative activity, Colon HCT-116; format: cell-based; settings: concentration corresponding to 50% growth inhibition, read-out: cytotoxicity GI50, Colon HCT-116
Procedure: as §1

SN12C = assay: NCI human cancer cell line screen, antiproliferative activity, Renal SN12C; format: cell-based; settings: concentration corresponding to 50% growth inhibition, read-out: cytotoxicity GI50, Renal SN12C
Procedure: as §1

DU-145 = assay: NCI human cancer cell line screen, antiproliferative activity, Prostate DU-145; format: cell-based; settings: concentration corresponding to 50% growth inhibition, read-out: cytotoxicity GI50, Prostate DU-145
Procedure: as §1

[1] = tested on: all human cancer cell lines successfully tested; assay: NCI screen, mean graph midpoint over approximately 55 cancer cell lines; format: cell-based; settings: average GI50 for all cell lines tested (approximately 55); test range 10^-4 to 10^-8 molar
Procedure: as §1

OVCAR-3 = assay: NCI human cancer cell line screen, antiproliferative activity, Ovarian OVCAR-3; format: cell-based; settings: concentration corresponding to 50% growth inhibition, read-out: cytotoxicity GI50, Ovarian OVCAR-3
Procedure: as §1

SF-539 = assay: NCI human cancer cell line screen, antiproliferative activity, CNS SF-539; format: cell-based; settings: concentration corresponding to 50% growth inhibition, read-out: cytotoxicity GI50, CNS SF-539
Procedure: as §1

UACC-62 = assay: NCI human cancer cell line screen, antiproliferative activity, Melanoma UACC-62; format: cell-based; settings: concentration corresponding to 50% growth inhibition, read-out: cytotoxicity GI50, Melanoma UACC-62
Procedure: as §1

MDA-MB-435 = assay: NCI human cancer cell line screen, antiproliferative activity, Breast MDA-MB-435; format: cell-based; settings: concentration corresponding to 50% growth inhibition, read-out: cytotoxicity GI50, Breast MDA-MB-435
Procedure: as §1

[2] = buffer, pH 7.4

## C[C@H]1CCC/C=C/[C@@H]2C[C@H](O)C[C@H]2[C@H](O)[C@H]([S+]([O-])c2ccc(O)cc2)CC(=O)O1 (stereo partly drawn) [Compound 14, 2,3-Dihydro-(3R)-(4′-hydroxyphenylsulfinyl)brefeldin A]
HOP-62
  GI50: 88 nM
HCT-116
  GI50: 26 nM
SN12C
  GI50: 50 nM
DU-145
  GI50: 118 nM
[1]
  MGM (mean graph midpoint for growth inhibition): 0.037 µM
OVCAR-3
  GI50: 25 nM
SF-539
  GI50: 17 nM
UACC-62
  GI50: 30 nM
MDA-MB-435
  GI50: 42 nM

## CC1CCCC=CC2CC(O)CC2C(O)[C@H]([S+]([O-])CCO)CC(=O)O1 (stereo partly drawn) [Compound 15, 2,3-Dihydro-(3R)-(2′-hydroxyethylsulfinyl)brefeldin A]
HOP-62
  GI50: 290 nM
HCT-116
  GI50: 210 nM
SN12C
  GI50: 650 nM
DU-145
  GI50: 260 nM
[1]
  MGM (mean graph midpoint for growth inhibition): 0.11 µM
OVCAR-3
  GI50: 190 nM
[2]
  half-life for the conversion of the sulfoxide to brefeldin A: 4.81 h
SF-539
  GI50: 58 nM
UACC-62
  GI50: 64 nM
MDA-MB-435
  GI50: 90 nM

## CC1CCCC=CC2CC(O)CC2C(O)[C@H]([S+]([O-])CCN)CC(=O)O1 (stereo partly drawn) [Compound 18, 2,3-Dihydro-(3R)-(2′-aminoethylsulfinyl)brefeldin A]
HOP-62
  GI50: 150 nM
HCT-116
  GI50: 86 nM
SN12C
  GI50: 120 nM
DU-145
  GI50: 170 nM
[1]
  MGM (mean graph midpoint for growth inhibition): 0.055 µM
OVCAR-3
  GI50: 82 nM
SF-539
  GI50: 20 nM
UACC-62
  GI50: 21 nM
MDA-MB-435
  GI50: 55 nM

## C[C@H]1CCC/C=C/[C@@H]2C[C@H](O)C[C@H]2[C@@H](O)[C@H]([S+]([O-])CCN(C)C)CC(=O)O1 (stereo partly drawn) [Compound 20, 2,3-Dihydro-(3R)-[21-N,N-(dimethylamino)ethylsulfinyl]brefeldin A]
HOP-62
  GI50: 350 nM
HCT-116
  GI50: 280 nM
SN12C
  GI50: 150 nM
DU-145
  GI50: 480 nM
[1]
  MGM (mean graph midpoint for growth inhibition): 0.20 µM
OVCAR-3
  GI50: 140 nM
SF-539
  GI50: 300 nM
UACC-62
  GI50: 71 nM
MDA-MB-435
  GI50: 410 nM

## CC1CCCC=CC2CC(O)CC2C(O)C([S+]([O-])C[C@H](N)C(=O)O)CC(=O)O1 (stereo partly drawn) [Compound 21, 2,3-Dihydro-(3R)-(S-L-cysteinyl)brefeldin A Sulfoxide]
HOP-62
  GI50: 700 nM
HCT-116
  GI50: 91 nM
SN12C
  GI50: 160 nM
DU-145
  GI50: 430 nM
[1]
  MGM (mean graph midpoint for growth inhibition): 0.096 µM
OVCAR-3
  GI50: 39 nM
SF-539
  GI50: 38 nM
UACC-62
  GI50: 38 nM
MDA-MB-435
  GI50: 50 nM

## C[C@H]1CCC/C=C/[C@@H]2C[C@H](OC(=O)CCC(=O)O)C[C@H]2[C@H](OC(=O)CCC(=O)O)/C=C/C(=O)O1 [Compound 24, Brefeldin A Disuccinate]
HOP-62
  GI50: > 100000 nM
HCT-116
  GI50: > 100000 nM
SN12C
  GI50: > 100000 nM
DU-145
  GI50: > 100000 nM
[1]
  MGM (mean graph midpoint for growth inhibition): 89 µM
OVCAR-3
  GI50: > 100000 nM
SF-539
  GI50: > 100000 nM
UACC-62
  GI50: > 100000 nM
MDA-MB-435
  GI50: > 100000 nM

## CC1CCCC=CC2CC(OC(=O)CCCC(=O)O)CC2C(OC(=O)CCCC(=O)O)C=CC(=O)O1 (stereo not shown) [Compound 25, Brefeldin A Diglutarate]
HOP-62
  GI50: > 100000 nM
HCT-116
  GI50: > 100000 nM
SN12C
  GI50: > 100000 nM
DU-145
  GI50: > 100000 nM
[1]
  MGM (mean graph midpoint for growth inhibition): 98 µM
OVCAR-3
  GI50: > 100000 nM
SF-539
  GI50: > 100000 nM
UACC-62
  GI50: > 100000 nM
MDA-MB-435
  GI50: > 100000 nM

## CC1CCCC=CC2CC(O)CC2C(O)C(O)C(O)C(=O)O1 (stereo not shown) [Compound 26, 2,3-Dihydro-2,3-dihydroxybrefeldin A]
HOP-62
  GI50: 5000 nM
SN12C
  GI50: 2700 nM
DU-145
  GI50: 6700 nM
[1]
  MGM (mean graph midpoint for growth inhibition): 3.0 µM and 2.3 µM
OVCAR-3
  GI50: 2400 nM
SF-539
  GI50: 680 nM
UACC-62
  GI50: 1600 nM
MDA-MB-435
  GI50: 3800 nM

## COC(=O)CS(=O)(=O)[C@@H]1CC(=O)OC(C)CCCC=CC2CC(O)CC2C1O (stereo partly drawn) [Compound 27, 2,3-Dihydro(3R)-(methoxycarbonylmethylsulfonyl)brefeldin A]
HOP-62
  GI50: 5100 nM
HCT-116
  GI50: 3700 nM
DU-145
  GI50: 6000 nM
[1]
  MGM (mean graph midpoint for growth inhibition): 3.5 µM
OVCAR-3
  GI50: 3200 nM
UACC-62
  GI50: 5000 nM
MDA-MB-435
  GI50: 5500 nM

## Brefeldin A 8 0-Glutarate [Compound 23]
HOP-62
  GI50: 33000 nM
HCT-116
  GI50: 21000 nM
SN12C
  GI50: 32000 nM
DU-145
  GI50: 30000 nM
[1]
  MGM (mean graph midpoint for growth inhibition): 13 µM
OVCAR-3
  GI50: 20000 nM
SF-539
  GI50: 22000 nM
MDA-MB-435
  GI50: 11000 nM

## Brefeldin A 8 0-Succinate [Compound 22]
[1]
  MGM (mean graph midpoint for growth inhibition): 2.5 µM
